What is called solubility is the dissolved amount per volume that the medium holds.

From patent US12454546B2, “Inotodiol ester derivative precursor drug” (CARBOEXPERT INC., priority 2020, dated 2025) come the findings set out here.

Series [1] is described as follows: Solubility of inotodiol in organic solvents (Example 1, HPLC-UV-VIS of supernatant). The format is physicochemical. As to conditions: 30 °C. On the procedure:
To measure the […] solubility of inotodiol, the following was performed.
First, 50 mg of an inotodiol sample was mixed with 1 ml of an organic solvent. Subsequently, the mixture was vortexed and placed in a water bath sonicator for 15 minutes. […]

Series [2] in a line: physchem. As to conditions: distilled water, 30 °C, thermodynamic from solid.
Experimental: (§1) To measure the solubility of inotodiol esters with respect to water, 5 mg of each sample was suspended in 1 mL of distilled water and treated in an ultrasonic bath for 30 minutes. The mixture was then treated in an ultrasonic bath (Power sonic 410) for 30 minutes. Then, the mixture was incubated at 30° C. for 3 hours. The supernatant obtained after centrifugation (20,000×g, 10 minutes) was filtered through a 0.45 μm membrane filter of [sequence]
The nature of series [3]: physchem. As to conditions: 30 °C, water, thermodynamic from solid.
Experimental: as §1

Each structure is given as a SMILES string. In brackets after ≈: the same amount, converted by molar mass.

With `CC(C)=CC[C@@H](O)[C@@H](C)[C@H]1CC[C@@]2(C)C3=C(CC[C@]12C)[C@@]1(C)CC[C@H](O)C(C)(C)[C@@H]1CC3` [Inotodiol, (3S,5R,10S,13R,14R,17R)-17-[(2S,3R)-3-hydroxy-6-methylhept-5-en-2-yl]-4,4,10,13,14-pentamethyl-2,3,5,6,7,11,12,15,16,17-decahydro-1H-cyclopenta[a]phenanthren-3-ol], the Inotodiol concentration turned out to be 0.976 mg/mL in series [1] (solvent acetonitrile); 24.675 mg/mL in series [1] (solvent dichloromethane); 25.152 mg/mL in series [1] (solvent ethanol); 8.685 mg/mL in series [1] (solvent ethyl acetate); 0.094 mg/mL in series [1] (solvent hexane); 7.964 mg/mL in series [1] (solvent methanol). Moreover, the Inotodiol concentration in series [1] (solvent t-butanol) was 26.493 mg/mL. In addition, the solubility at 3 h in the series “physchem [2]” was 0.0005 ± 0.00018 mg/mL (≈ 0.00113 mM); in the series “physchem [3]”, 31 ± 3.8 mg/mL (≈ 70 mM).
